Experimental data published in US10028956B2, “Methods of treating various cancers using an AXL/cMET inhibitor in combination with other agents” (Ignyta, Inc., priority 2013, dated 2018).
Marks after values point to notes of the source that are not given here.

Tests used:
c-Met [1] = biological target: T1, c-Met (Homo sapiens, UniProt P08581); test: Dissociation from c-Met, LanthaScreen Eu-kinase binding assay
Description: Assay buffer was prepared as for association, and used for all dilutions. A 5-μL aliquot of 80 nM LanthaScreen Eu-anti-GST antibody:20 nM GST-tagged enzyme mix was added to the Greiner low volume white 384-well plate, with antibody only added to control wells. Compound (100 nL) in DMSO was added by pintool at 2000-fold over the final assay concentration. DMSO was added to no inhibitor control wells. After a one-hour incubation at ambient temperature to allow formation of the enzyme-inhibitor complex, 2 μL of the reaction mix was transferred to a 384 Optiplate (PerkinElmer) and 78 μL of kinase tracer 236 was added. The final tracer concentration was 100 nM for AXL and 200 nM for c-Met. Readings were immediately initiated and total of 60 time points were taken at 2-min intervals, at 25° C. or 37° C. The background subtracted ratio was normalized to the no inhibitor control to calculate the % tracer bound, which was plotted with respect to time. The data was fitted to the one phase association model in GraphPad Prism (La Jolla Calif.).

[2] = system: CTG-0170 erlotinib-insensitive primary NSCLC human TumorGraft; test: NSCLC TumorGraft model CTG-0170; format: in vivo, mice; conditions: for % Tumor Growth Inhibition: CTG-0170, 10 days
Description: Methods (for the experiments shown in FIGS. 10 and 11) • Female immunocompromised nu/nu mice (Harlan) between 6-9 weeks of age were housed on irradiated papertwist-enriched ⅛″ corncob bedding (Sheperd) in individual HEPA ventilated cages (Innocage® IVC, Innovive USA) on a 12-hour light-dark cycle at 68-74° F. (20-23° C.) and 30-70% humidity. Animals were fed water ad libitum (reverse osmosis, 2 ppm Cl2) and an irradiated Test rodent diet (Teklad 2919) consisting of 19% protein, 9% fat, and 4% fiber. • Tumor Models: Champions TumorGraft models of NSCLC are owned by Champions Oncology. In this study, animals were implanted unilaterally on the right flank with tumor fragments harvested from host animals. […] Erlotinib (manufacturer: OSI Pharmaceuticals; National Drug Code: 50242-062-01; Lot #: US0002) was formulated using 100% PEG-400 as the vehicle according to manufacturer's specifications.
Efficacy measurements: Beginning Day 0, tumor dimensions were measured twice weekly by digital caliper (Fowler Ultra-Cal IV) and data including individual and mean estimated tumor volumes (Mean TV±SEM) were recorded for each group; tumor volume was calculated using the formula TV=width^2×length×0.52. At study completion, percent tumor growth inhibition (% TGI) values were calculated and reported for each treatment group (T) versus control (C) using initial (i) and final (f) tumor measurements by the formula: % TGI=1−Tf−Ti/Cf−C; single agent or combination therapies resulting in a TGI>50 at study completion are considered active in the tested model at the evaluated treatment regimen according to NCI guidelines. Individual mice reporting a tumor volume ≤50% of the Day 0 measurement for two consecutive measurements over a seven day period were considered partial responders (PR). If the PR persisted until study completion, percent tumor regression (% TR) was determined using the formula: % TR=1−Tf/Ti×100; a mean value was calculated if multiple PR mice occurred in one group. Individual mice lacking palpable tumors (<4×4 mm^2 for two consecutive measurements over a seven day period) were classified as complete responders (CR); a CR that persisted until study completion was considered a tumor-free survivor (TFS). TFS animals are excluded from efficacy calculations. Statistical differences in tumor volume were determined using a two-tailed One-Way Analysis of Variance (ANOVA) followed by the Dunett's multiple comparisons test comparing treated groups with control and combinations with standard agent alone when possible. All data collected in this study was managed electronically and stored on a redundant server system.

c-Met [3] = biological target: T1, c-Met; test: c-Met enzyme inhibition; format: biochemical
[4] = system: MDA-MB-231-Leu orthotopic breast tumor xenografts; test: Metastases of MDA-MB-231-Leu orthotopic breast tumor xenografts; format: in vivo, mice; conditions: oral administration, 10 and 30 mg/kg qd
Description: The human breast cancer cell line MDA-MB-231-Leu-D3H2LN-luciferase expressing cell line was purchased from Caliper Life Sciences. This tumor cell line was generated by stable transfection of the firefly luciferase gene expressed from the SV40 promoter and further selected for its metastatic potential upon isolation from a spontaneous lymph node metastasis of MDA-MB-231-Luc cells in immune-compromised mice. The cells were grown in DMEM medium supplemented with 10% fetal bovine serum (FBS, Cat^# SH3007003, Hyclone, Logan, Utah). D-Luciferin firefly/potassium salt (Cat. # L-8220) was purchased from Biosynth International, Inc., Itasca, Ill.). Female nu/nu mice (6 to 8 weeks old) were purchased from Harlan Laboratories. […] Mouse body weights were measured on day 0 and then every 7 days, and bioluminescence image analysis performed at the end of the study using the Caliper Life Sciences (Xenogen) Spectrum imager as detailed in FIG. 6. Images of the primary tumor and potential metastatic tumors in lymph nodes were taken weekly, starting on day 7 post cell implantation. Prior to image acquisition, each mouse were give a 0.2 ml intra-peritoneal injection of D-Luciferin firefly/potassium salt and images were acquired 6-10 minutes post substrate administration. […] Counts were converted to average radiance or mean photon flux; expressed as photons per second (p/s). […]

T1 sequence (P08581 25-1390): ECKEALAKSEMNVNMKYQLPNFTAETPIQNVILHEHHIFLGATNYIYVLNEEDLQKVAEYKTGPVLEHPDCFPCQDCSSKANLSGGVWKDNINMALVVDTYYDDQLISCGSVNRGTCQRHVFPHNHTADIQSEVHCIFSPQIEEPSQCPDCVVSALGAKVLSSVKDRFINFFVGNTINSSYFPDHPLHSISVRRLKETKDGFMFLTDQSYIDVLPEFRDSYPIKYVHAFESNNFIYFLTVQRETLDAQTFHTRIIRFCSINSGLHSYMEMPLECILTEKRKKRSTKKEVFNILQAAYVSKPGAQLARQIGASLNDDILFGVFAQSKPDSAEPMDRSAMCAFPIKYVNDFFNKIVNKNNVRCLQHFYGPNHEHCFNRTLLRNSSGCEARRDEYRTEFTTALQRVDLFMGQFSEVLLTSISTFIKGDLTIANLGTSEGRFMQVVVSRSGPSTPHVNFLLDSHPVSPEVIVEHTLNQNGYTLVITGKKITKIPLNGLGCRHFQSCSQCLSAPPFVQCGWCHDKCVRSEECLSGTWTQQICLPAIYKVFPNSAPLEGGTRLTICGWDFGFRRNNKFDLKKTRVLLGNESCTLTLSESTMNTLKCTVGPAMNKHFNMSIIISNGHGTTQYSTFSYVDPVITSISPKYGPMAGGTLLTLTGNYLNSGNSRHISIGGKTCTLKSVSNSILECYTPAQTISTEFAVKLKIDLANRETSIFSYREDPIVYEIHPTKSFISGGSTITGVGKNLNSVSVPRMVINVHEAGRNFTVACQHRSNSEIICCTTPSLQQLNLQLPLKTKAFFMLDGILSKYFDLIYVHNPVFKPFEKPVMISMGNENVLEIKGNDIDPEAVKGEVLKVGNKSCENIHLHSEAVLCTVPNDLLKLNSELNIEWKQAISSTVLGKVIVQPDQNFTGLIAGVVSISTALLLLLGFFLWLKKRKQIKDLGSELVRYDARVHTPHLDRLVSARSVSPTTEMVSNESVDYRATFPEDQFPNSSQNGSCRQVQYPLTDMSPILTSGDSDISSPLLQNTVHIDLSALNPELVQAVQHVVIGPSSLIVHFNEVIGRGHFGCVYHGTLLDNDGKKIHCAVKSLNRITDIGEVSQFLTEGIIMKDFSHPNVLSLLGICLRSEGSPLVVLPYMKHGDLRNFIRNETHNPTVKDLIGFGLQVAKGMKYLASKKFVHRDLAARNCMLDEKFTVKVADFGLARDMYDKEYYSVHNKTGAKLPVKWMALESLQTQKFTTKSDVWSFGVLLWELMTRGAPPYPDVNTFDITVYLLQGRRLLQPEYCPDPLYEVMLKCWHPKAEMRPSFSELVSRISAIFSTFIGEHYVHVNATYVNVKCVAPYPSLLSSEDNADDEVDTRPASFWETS

COc1cc2nccc(Oc3ccc(NC(=O)c4cn(C(C)C)c(=O)n(-c5ccc(F)cc5)c4=O)cc3F)c2cc1OC [CEP-40783, 3-(4-Fluorophenyl)-1-isopropyl-2,4-dioxo-1,2,3,4-tetrahydropyrimidine-5-carboxylic acid [4-(6,7-dimethoxyquinolin-4-yloxy)-3-fluorophenyl]-amide]
off-rate from c-Met (c-Met [1]; 25° C.): very slow | dissociation rate from c-Met at higher temperature (c-Met [1]; 37° C. versus 25° C.): slightly enhanced | % Tumor Growth Inhibition ([2]; 10 mg/kg po/qd): 104%*† | % Tumor Growth Inhibition ([2]; 30 mg/kg po/qd): 107%*† | efficacy in erlotinib-insensitive TumorGraft ([2]; CTG-0170, oral 10 mg/kg and 30 mg/kg): tumor regressions | IC50 (c-Met [3]): 12 nM | spontaneous lymph node and pulmonary metastatic tumor burden [4]: efficacious in reducing spontaneous lymph node and pulmonary metastatic tumor burden
